Test results from patent US3932646A, “Pharmaceutical compositions containing unsymmetrical esters of 1,4-dihydropyridine 3,5-dicarboxylate” (Farbenfabriken Bayer AG, priority 1971, dated 1976).

How the values were obtained:
Format in all cases: in vivo
[1] = Toxicity (Mouse), conventional LD50 determination p.o.; conditions: in vivo, po
Excerpt: (§1) The pharmacological properties of these compounds are conveniently observed in well-known animal models which parallel the desired clinical response. Similarly toxicity is low, as measured for example in the conventional LD50 determination.

[2] = tested on: hypertensive rat; experiment: Blood pressure effect on hypertensive rat p.o.; conditions: given as "from" dose; for minimal effective dose: po, read-out: Blood pressure effect on hypertensive rat (dose from which the effect is seen)
Excerpt: as §1

[3] = tested on: coronary vessels; experiment: Dosage at which a coronary effect is observed, i.v.; conditions: for minimal effective dose: iv
[4] = tested on: Mouse; experiment: Toxicity (Mouse), conventional LD50 determination p.o.
Excerpt: as §1

| SMILES | LD50 [1] | minimal effective dose [2] | minimal effective dose [3] | Toxicity (Mouse) LD50 [4] | Dose at which a coronary effect is observed [3] | Blood pressure effect on hypertensive rat (dose from which the effect is seen) [2] |
| --- | --- | --- | --- | --- | --- | --- |
| C#CCOC(=O)C1=C(C)NC(C)=C(C(=O)OCC)C1c1ccccc1C (stereo not shown) [Example 2, 2,6-dimethyl-4-(2'-methylphenyl)-1,4-dihydropyridine-3,5-dicarboxylic acid 3-ethyl ester-5-propargyl ester] | 800 mg/kg | ≥ 10 mg/kg | 0.01 mg/kg |  |  |  |
| C=CCOC(=O)C1=C(C)NC(C)=C(C(=O)OC)C1c1cc(Br)c(OC)c(OC)c1 (stereo not shown) [Example 10, 2,6-dimethyl-4-(3', 4'-dimethoxy-5-bromophenyl)-1,4-dihydropyridine-3,5-dicarboxylic acid 3-methyl ester-5-allyl ester] | > 3000 mg/kg |  | 5 mg/kg |  |  |  |
| CCOC(=O)C1=C(C)NC(C)=C(C(=O)OCCOC)C1c1ccccc1Cl (stereo not drawn) [Example 14, 2,6-dimethyl-4-(2'-chlorophenyl)-1,4-dihydropyridine 3,5-dicarboxylic acid 3-β-methoxyethyl ester 5-ethyl ester] | 1000 mg/kg | ≥ 3.1 mg/kg | 0.01 mg/kg |  |  |  |
| C=CCOC(=O)C1=C(C)NC(C)=C(C(=O)OC)C1c1ccccc1F (stereo not shown) [Example 3, 2,6-dimethyl-4-(2'-fluorophenyl)-1,4-dihydropyridine-3,5-dicarboxylic acid 3-methyl ester-5-allyl ester] | 800 mg/kg | ≥ 3.1 mg/kg | 0.01 mg/kg |  |  |  |
| C=CCOC(=O)C1=C(C)NC(C)=C(C(=O)OCC)C1c1ccccc1C (stereo not shown) [Example 1, 2,6-dimethyl-4-(2'-methylphenyl)-1,4-dihydropyridine-3,5-dicarboxylic acid 3-ethyl ester-5-allyl ester] | > 3000 mg/kg | ≥ 10 mg/kg | 0.05 mg/kg |  |  |  |
| C#CCOC(=O)C1=C(C)NC(C)=C(C(=O)OC)C1c1ccccc1F (stereo not shown) [Example 16, 2,6-dimethyl-4-(2'-fluorophenyl)-1,4-dihydropyridine-3,5-dicarboxylic acid 3-propargyl ester 5-methyl ester] | 200 mg/kg | ≥ 10 mg/kg | 0.05 mg/kg |  |  |  |
| C=CCOC(=O)C1=C(C)NC(C)=C(C(=O)OCC)C1c1cccc(Cl)c1 (stereo not shown) [Example 17, 2,6-dimethyl-4-(3'-chlorophenyl)-1,4-dihydropyridine-3,5-dicarboxylic acid 3-allyl ester 5-ethyl ester] | > 3000 mg/kg | ≥ 10 mg/kg | 0.01 mg/kg |  |  |  |
| C=CCOC(=O)C1=C(C)NC(C)=C(C(=O)OCC)C1c1ccccc1Cl (stereo not shown) [Example 8, 2,6-dimethyl-4-(2'-chlorophenyl)-1,4-dihydropyridine-3,5-dicarboxylic acid 3-ethyl ester-5-allyl ester] | 630 mg/kg | ≥ 1 mg/kg | 0.01 mg/kg |  |  |  |
| C#CCOC(=O)C1=C(C)NC(C)=C(C(=O)OCC)C1c1ccccc1C(F)(F)F (stereo not shown) [Example 4, 2,6-dimethyl-4-(2'-trifluoromethylphenyl)-1,4-dihydropyridine-3,5-dicarboxylic acid 3-ethyl ester-5-propargyl ester] |  | ≥ 1 mg/kg |  | 200 mg/kg | 0.005 mg/kg |  |
| C=CCOC(=O)C1=C(C)NC(C)=C(C(=O)OC(C)C)C1c1cccc(C(F)(F)F)c1 (stereo not shown) [Example 15, 2,6-dimethyl-4-(3'-trifluoromethylphenyl)-1,4-dihydropyridine-3,5-dicarboxylic acid 3-isopropyl ester 5-allyl ester] | > 3000 mg/kg | ≥ 3.1 mg/kg | 0.05 mg/kg |  |  |  |
| C#CCOC(=O)C1=C(C)NC(C)=C(C(=O)OCC)C1c1ccccc1OC (stereo not shown) [Example 18, 2,6-dimethyl-4-(2'-methoxyphenyl)-1,4-dihydropyridine-3,5-dicarboxylic acid 3-propargyl ester 5-ethyl ester] | 3000 mg/kg | ≥ 10 mg/kg | 0.05 mg/kg |  |  |  |
| C=CCOC(=O)C1=C(C)NC(C)=C(C(=O)OCC)C1c1ccc(OC)c(OC)c1OC (stereo not shown) [Example 9, 2,6-dimethyl-4-(2', 3', 4'-trimethoxyphenyl)-1,4-dihydropyridine-3,5-dicarboxylic acid 3-ethyl ester-5-allyl ester] | 3000 mg/kg |  |  |  |  |  |
| C#CCOC(=O)C1=C(C)NC(C)=C(C(=O)OCC)C1c1ccccc1C(F)(F)F (stereo not shown) [Example 13, 2,6-dimethyl-4-(2'-trifluoromethylphenyl)-1,4-dihydropyridine-3,5-dicarboxylic acid 3-propargyl ester 5-ethyl ester] |  |  |  | 2000 mg/kg | 0.05 mg/kg | ≥ 1.0 mg/kg |
| C=CCOC(=O)C1=C(C)NC(C)=C(C(=O)OCC)C1c1ccccc1C(F)(F)F (stereo not shown) [Example 5, 2,6-dimethyl-4-(2'-trifluoromethylphenyl)-1,4-dihydropyridine-3,5-dicarboxylic acid 3-ethyl ester-5-allyl ester] | 630 mg/kg | ≥ 3.1 mg/kg | 0.001 mg/kg |  |  |  |
| CCCOCCOC(=O)C1=C(C)NC(C)=C(C(=O)OCC)C1c1ccccc1OC (stereo not drawn) [Example 7, 2,6-dimethyl-4-(2'-methoxyphenyl)-1,4-dihydropyridine-3,5-dicarboxylic acid 3-ethyl ester-5-β-propoxyethyl ester] | > 3000 mg/kg | ≥ 31.5 mg/kg | 0.05 mg/kg |  |  |  |
| C#CCOC(=O)C1=C(C)NC(C)=C(C(=O)OC)C1c1ccccc1C(F)(F)F (stereo not shown) [Example 6, 2,6-dimethyl-4-(2'-trifluoromethylphenyl)-1,4-dihydropyridine-3,5-dicarboxylic acid 3-methyl ester-5-propargyl ester] | 200 mg/kg | ≥ 0.3 mg/kg | 0.005 mg/kg |  |  |  |
| C#CCOC(=O)C1=C(C)NC(C)=C(C(=O)OC)C1c1ccccc1OC (stereo not shown) [Example 11, 2,6-dimethyl-4-(2'-methoxyphenyl)-1,4-dihydropyridine-3,5-dicarboxylic acid 3-propargyl ester 5-methyl ester] | > 3000 mg/kg | ≥ 10 mg/kg | 0.05 mg/kg |  |  |  |
| C#CCOC(=O)C1=C(C)NC(C)=C(C(=O)OCC)C1c1ccc(C(=O)OCC)cc1 (stereo not shown) [Example 19, 2,6-dimethyl-4-(4'-carboxyethylphenyl)-1,4-dihydropyridine-3,5-dicarboxylic acid 3-propargyl ester 5-ethyl ester] | 3000 mg/kg |  |  |  |  |  |
| C#CCOC(=O)C1=C(C)NC(C)=C(C(=O)OC)C1c1ccccc1C(F)(F)F (stereo not shown) [Example 12, 2,6-dimethyl-4-(2'-trifluoromethylphenyl)-1,4-dihydropyridine 3,5-dicarboxylic acid 3-propargyl ester 5-methyl ester] |  |  |  | 100 mg/kg | 0.003 mg/kg | ≥ 0.3 mg/kg |
